One may read the IC50 as the concentration that gives 50% inhibition. Low values mean greater potency in that assay, high ones weaker potency in that assay.

Experimental findings from US20160287589A1, “SUBSTITUTED-IMIDAZOPYRIDAZINES” (BAYER PHARMA AKTIENGESELLSCHAFT, priority 2013, published 2016) are described below.

The target in test [1] is T1, MKNK1 (Homo sapiens, UniProt Q9BUB5, T385D).
T1 construct: GST (N); purchased Carna Biosciences 02-145; host or cells: insect cells (baculovirus expression system)
T1 sequence (Q9BUB5 1-424 isoform Q9BUB5-2 T344D): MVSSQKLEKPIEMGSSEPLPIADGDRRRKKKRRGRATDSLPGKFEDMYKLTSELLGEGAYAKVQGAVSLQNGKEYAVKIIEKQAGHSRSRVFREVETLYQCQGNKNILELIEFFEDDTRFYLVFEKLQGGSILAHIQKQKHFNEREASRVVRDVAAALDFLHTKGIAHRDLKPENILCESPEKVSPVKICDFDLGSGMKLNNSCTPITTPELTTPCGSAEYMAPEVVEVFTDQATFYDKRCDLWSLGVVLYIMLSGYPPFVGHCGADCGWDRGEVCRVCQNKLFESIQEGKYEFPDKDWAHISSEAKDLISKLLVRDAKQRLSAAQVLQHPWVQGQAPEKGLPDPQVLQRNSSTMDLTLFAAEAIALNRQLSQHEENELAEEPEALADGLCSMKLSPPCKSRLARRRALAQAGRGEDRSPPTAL
In words: MKNK1 kinase assay (MKNK1 TR-FRET assay). It is filed as biochemical. Particulars: Table 1c; 10 μM ATP, 15 min preincubation. For orientation: In TR-FRET formats the signal depends on donor and acceptor labels being close together.

In test [2] the target is T1, MKNK1. Nature of the test: MKNK1 kinase high ATP assay (TR-FRET-based). The test is classed as biochemical. Conditions: Table 2c; 2 mM ATP, 15 min preincubation. Summed up: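 GST-tagged full-length human MKNK1 (aa 1-424, T344D) from insect cells, preincubated with compound 15 min at 22 °C. Reaction 30 min at 22 °C with 2 mM ATP and 0.06 μM biotinylated peptide in HEPES pH 7.5, Mg2+, DTT. Phosphopeptide detected by TR-FRET (665/622 ratio) with anti-pS6 (pSer236) antibody; normalised to no-inhibitor and no-enzyme controls.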

SMILES strings stand for the structures.

With `O=C1CC[C@H](COc2ccc3ncc(-c4cc5c(N6CCN(c7ccccc7)CC6)nccc5o4)n3n2)N1` [III-76, (5R)-5-[({3-[4-(4-Phenylpiperazin-1-yl)furo[3,2-c]pyridin-2-yl]imidazo[1,2-b]pyridazin-6-yl}oxy)methyl]pyrrolidin-2-one], the concentration for half-maximal inhibition (IC50) in test [1] was 3.5 nM; in test [2] it was 6 nM.
As to `O=C1CC[C@H](COc2ccc3ncc(-c4cc5c(N6CCC(CO)CC6)nccc5o4)n3n2)N1` [III-77, (5R)-5-{[(3-{4-[4-(Hydroxymethyl)piperidin-1-yl]furo[3,2-c]pyridin-2-yl}imidazo[1,2-b]pyridazin-6-yl)oxy]methyl}pyrrolidin-2-one], the IC50 amounted to 0.7 nM in test [1] and 1.1 nM in test [2].
Consider `COC[C@H]1CCCN1c1nccc2oc(-c3cnc4ccc(OC[C@H]5CCC(=O)N5)nn34)cc12` [III-78, (5R)-5-{[(3-{4-[(2R)-2-(Methoxymethyl)pyrrolidin-1-yl]furo[3,2-c]pyridin-2-yl}imidazo[1,2-b]pyridazin-6-yl)oxy]methyl}pyrrolidin-2-one], for which the results for the IC50 in test [1] and in test [2] were 0.2 nM and 1.2 nM, respectively.
The matching figures for `CCN(CCOC(C)(C)C)c1nccc2oc(-c3cnc4ccc(OC[C@H]5CCC(=O)N5)nn34)cc12` [III-80, (5R)-5-{[(3-{4-[(2-tert-Butoxyethyl)(ethyl)amino]furo[3,2-c]pyridin-2-yl}imidazo[1,2-b]pyridazin-6-yl)oxy]methyl}pyrrolidin-2-one]: 0.4 nM and 0.2 nM.
For `COCCN(C)c1nccc2oc(-c3cnc4ccc(OC[C@H]5CCC(=O)N5)nn34)cc12` [III-81, (5R)-5-{[(3-{4-[(2-Methoxyethyl)(methyl)amino]furo[3,2-c]pyridin-2-yl}imidazo[1,2-b]pyridazin-6-yl)oxy]methyl}pyrrolidin-2-one], in that order: 0.3 nM and 0.5 nM.
For `CCCN(CCOC)c1nccc2oc(-c3cnc4ccc(OC[C@H]5CCC(=O)N5)nn34)cc12` [III-82, (5R)-5-{[(3-{4-[(2-Methoxyethyl)(propyl)amino]furo[3,2-c]pyridin-2-yl}imidazo[1,2-b]pyridazin-6-yl)oxy]methyl}pyrrolidin-2-one], in that order: 0.4 nM and 0.3 nM.
For the compound `COC[C@@H]1CCCN1c1nccc2oc(-c3cnc4ccc(OC[C@H]5CCC(=O)N5)nn34)cc12` [III-83, (5R)-5-{[(3-{4-[(2S)-2-(Methoxymethyl)pyrrolidin-1-yl]furo[3,2-c]pyridin-2-yl}imidazo[1,2-b]pyridazin-6-yl)oxy]methyl}pyrrolidin-2-one], the half-maximal inhibitory concentration (IC50) in test [1] turned out to be 11.6 nM; in test [2], 19.1 nM.
The matching figures for `C[C@@H]1COCCN1c1nccc2oc(-c3cnc4ccc(OC[C@@H]5CCC(=O)N5)nn34)cc12` [III-85, (5S)-5-{[(3-{4-[(3R)-3-Methylmorpholin-4-yl]furo[3,2-c]pyridin-2-yl}imidazo[1,2-b]pyridazin-6-yl)oxy]methyl}pyrrolidin-2-one]: 4.8 nM and 5.2 nM.
For `CCN(CCOC)c1nccc2oc(-c3cnc4ccc(OC[C@@H]5CCC(=O)N5)nn34)cc12` [III-86, (S)-5-{[(3-{4-[Ethyl(2-methoxyethyl)amino]furo[3,2-c]pyridin-2-yl}imidazo[1,2-b]pyridazin-6-yl)oxy]methyl}pyrrolidin-2-one], in that order: 0.7 nM and 0.5 nM.
For `O=C1CNC[C@H](COc2ccc3ncc(-c4cc5c(N6CCOCC6)nccc5o4)n3n2)N1` [III-89, (6R)-6-[({3-[4-(Morpholin-4-yl)furo[3,2-c]pyridin-2-yl]imidazo[1,2-b]pyridazin-6-yl}oxy)methyl]piperazin-2-one], in that order: 2.9 nM and 8 nM.
Turning to `CCN(CCOC)c1nccc2oc(-c3cnc4ccc(OC[C@H]5CNCC(=O)N5)nn34)cc12` [III-90, (6R)-6-{[(3-{4-[Ethyl(2-methoxyethyl)amino]furo[3,2-c]pyridin-2-yl}imidazo[1,2-b]pyridazin-6-yl)oxy]methyl}piperazin-2-one], the half-maximal inhibitory concentration (IC50) in test [1] came out at 0.8 nM; in test [2], 0.5 nM.
For `COc1ccc2ncc(-c3cc4c(N5CCN(c6ccccc6)CC5)nccc4o3)n2n1` [III-91, 6-Methoxy-3-[4-(4-phenylpiperazin-1-yl)furo[3,2-c]pyridin-2-yl]imidazo[1,2-b]pyridazine], in that order: 8.4 nM and 18.3 nM.
For the compound `N[C@H]1C[C@H](Oc2ccc3ncc(-c4cc5c(N6CCOCC6)nccc5o4)n3n2)C1` [III-95, trans-3-({3-[4-(Morpholin-4-yl)furo[3,2-c]pyridin-2-yl]imidazo[1,2-b]pyridazin-6-yl}oxy)cyclobutanamine], the results for the IC50 in test [1] and in test [2] were 3.2 nM and 7.8 nM, respectively.
The matching figures for `CN1CCN(c2nccc3oc(-c4cnc5ccc(O[C@H]6C[C@@H](N)C6)nn45)cc23)CC1` [III-96, cis-3-({3-[4-(4-Methylpiperazin-1-yl)furo[3,2-c]pyridin-2-yl]imidazo[1,2-b]pyridazin-6-yl}oxy)cyclobutanamine]: 3.9 nM and 3.4 nM.
In the case of `CN(CCCN1CCCC1)c1nccc2oc(-c3cnc4ccc(O[C@H]5C[C@H](N)C5)nn34)cc12` [III-97, 2-{6-[(trans-3-Aminocyclobutyl)oxy]imidazo[1,2-b]pyridazin-3-yl}-N-methyl-N-[3-(pyrrolidin-1-yl)propyl]furo[3,2-c]pyridin-4-amine], the IC50 came to 5.6 nM in test [1] and 21 nM in test [2].
Take `CN(C)[C@@H]1CCN(c2nccc3oc(-c4cnc5ccc(O[C@H]6C[C@H](N)C6)nn45)cc23)C1` [III-98, (3R)-1-(2-{6-[(trans-3-Aminocyclobutyl)oxy]imidazo[1,2-b]pyridazin-3-yl}furo[3,2-c]pyridin-4-yl)-N,N-dimethylpyrrolidin-3-amine]: the results for the IC50 in test [1] and in test [2] were 1.6 nM and 3.3 nM, respectively.
The matching figures for `CC(C)(C)N1CCN(c2nccc3oc(-c4cnc5ccc(O[C@H]6C[C@H](N)C6)nn45)cc23)CC1` [III-99, trans-3-({3-[4-(4-tert-butylpiperazin-1-yl)furo[3,2-c]pyridin-2-yl]imidazo[1,2-b]pyridazin-6-yl}oxy)cyclobutanamine]: 24.4 nM and 45.6 nM.
The matching figures for `CN1CCC(N(C)c2nccc3oc(-c4cnc5ccc(O[C@H]6C[C@H](N)C6)nn45)cc23)CC1` [III-100, 2-{6-[(trans-3-Aminocyclobutyl)oxy]imidazo[1,2-b]pyridazin-3-yl}-N-methyl-N-(1-methylpiperidin-4-yl)furo[3,2-c]pyridin-4-amine]: 5.7 nM and 45.8 nM.
In the case of `CCN(CCOC)c1nccc2oc(-c3cnc4ccc(O[C@H]5C[C@H](N)C5)nn34)cc12` [III-101, 2-{6-[(trans-3-Aminocyclobutyl)oxy]imidazo[1,2-b]pyridazin-3-yl}-N-ethyl-N-(2-methoxyethyl)furo[3,2-c]pyridin-4-amine], the figures for the IC50 in test [1] and in test [2] were 0.8 nM and 1.2 nM, respectively.
The matching figures for `N[C@H]1C[C@H](Oc2ccc3ncc(-c4cc5c(N6CCC[C@@H]6CO)nccc5o4)n3n2)C1` [III-102, [(2R)-1-(2-{6-[(trans-3-Aminocyclobutyl)oxy]imidazo[1,2-b]pyridazin-3-yl}furo[3,2-c]pyridin-4-yl)pyrrolidin-2-yl]methanol]: 6.8 nM and 31.2 nM.
